Data reported in patent US20260294922A1, “Inhibitors of JUN N-Terminal Kinases (JNK1, JNK2, and/or JNK3) and Mitogen-Activated Protein Kinases (MAPK8, MAPK9, and/or MAPK10) and Methods of Using Same” (Baylor College of Medicine, priority 2023, published 2026).
Several values for one entry are separate records, joined by “and”; a condition that tells them apart may be missing. Equal entries are not always repeated. Where two headings read alike, the source gives them in different places.

Experiments:
[1] = molecular target: T1, CSNK1D (Homo sapiens, UniProt P48730); test: ThermoFisher SelectScreen, CSNK1D; type: binding
T1 construct: purchased ThermoFisher (SelectScreen)

[2] = molecular target: T2, PHKG2 (Homo sapiens, UniProt P15735); test: ThermoFisher SelectScreen, PHKG2; type: binding; details: Table 4
T2 construct: purchased ThermoFisher (SelectScreen, outsourced service)
T2 sequence (P15735 1-406): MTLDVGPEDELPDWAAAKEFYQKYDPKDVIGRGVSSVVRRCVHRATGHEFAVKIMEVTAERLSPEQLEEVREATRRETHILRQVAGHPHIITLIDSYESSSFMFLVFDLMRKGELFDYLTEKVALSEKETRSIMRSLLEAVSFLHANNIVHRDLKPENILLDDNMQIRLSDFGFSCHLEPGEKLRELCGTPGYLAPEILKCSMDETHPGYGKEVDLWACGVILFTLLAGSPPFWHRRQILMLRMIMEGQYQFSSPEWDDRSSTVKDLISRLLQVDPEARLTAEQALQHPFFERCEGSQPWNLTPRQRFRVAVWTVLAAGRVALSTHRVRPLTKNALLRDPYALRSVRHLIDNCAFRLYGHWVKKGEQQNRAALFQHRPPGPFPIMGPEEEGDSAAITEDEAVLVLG
Protocol: (§1) To mitigate violation of the linear initial velocity principle, which is a problem in end-point assays when doing dose-responses, the enzyme concentration was carefully optimized, in a total assay volume of 25 μL. The assay was performed using 10 μM ATP, 0.02% Tween-20, kinase buffer from Cell Signaling (#9802) in white 384-well plates. The kinase reaction was done for 30 or 60 min at 30° C., and detection of leftover ATP was measured according to Promega's protocol. […] Fractional activities were obtained from normalized data. Non-linear regression (GraphPad Prism7) and a modified Morrison equation for tight binding was used to determine apparent Ki values for inhibitors, assuming no particular mode of inhibition. An orthogonal binding assay (LanthaScreen) was outsourced to ThermoFisher Scientific's SelectScreen Services to determine IC50 values.
(§2) One of the earliest compounds to be synthesized with favorable enzymatic activity towards JNK1 and JNK3 was CDD-2346. A KINOMEscan was performed for CDD-2346 to establish whether the selectivity of this chemical scaffold was suitable or required optimization. […] To confirm that the activity against each kinase was a true result and not a false positive, CDD-2346 was evaluated in kinase assays using ThermoFisher SelectScreen platform. The results from these assays are provided herein (Table 4). The important innovative steps described are the optimization of selectivity a) for JNK isoforms; b) for kinases considered “in-pathway”; and c) to avoid kinases considered “out-of-pathway”.

[3] = molecular target: T3, JNK1 (Homo sapiens, UniProt P45983); test: JNK1 kinase (intrinsic ATPase, Kinase-Glo) assay; type: biochemical
How it was run: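 Full-length construct not stated; kinases hydrolyse ATP without peptide substrate, reaction run 30 or 60 min at 30° C, remaining ATP read by Kinase-Glo luminescence with no-kinase controls. Apparent Ki from normalized fractional activities fitted to modified Morrison tight-binding equation; orthogonal LanthaScreen binding assay gave IC50.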

[4] = molecular target: T4, PIP5K1C (Homo sapiens, UniProt O60331); test: ThermoFisher SelectScreen, PIP5K1C; type: binding; details: Table 4
T4 construct: purchased ThermoFisher (SelectScreen, outsourced service)
Protocol: as §1, §2

[5] = molecular target: T5, MEK4 (Homo sapiens, UniProt P45985); test: ThermoFisher SelectScreen, MEK4; type: binding
T5 construct: purchased ThermoFisher (SelectScreen)
T5 sequence (P45985 1-399): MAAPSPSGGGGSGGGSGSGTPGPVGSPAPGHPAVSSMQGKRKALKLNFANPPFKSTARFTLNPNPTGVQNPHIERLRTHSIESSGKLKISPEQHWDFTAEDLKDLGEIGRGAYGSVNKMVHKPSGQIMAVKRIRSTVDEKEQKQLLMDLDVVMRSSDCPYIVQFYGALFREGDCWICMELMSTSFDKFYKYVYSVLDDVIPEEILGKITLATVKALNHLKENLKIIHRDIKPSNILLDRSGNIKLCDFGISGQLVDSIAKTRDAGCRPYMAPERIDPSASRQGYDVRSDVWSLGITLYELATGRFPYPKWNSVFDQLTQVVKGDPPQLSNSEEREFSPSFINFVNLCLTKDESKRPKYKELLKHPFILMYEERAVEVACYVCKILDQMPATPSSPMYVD

[6] = molecular target: T6, ERK2 (Homo sapiens, UniProt P28482); test: ThermoFisher SelectScreen, ERK2; type: binding
T6 construct: purchased ThermoFisher (SelectScreen, outsourced service)

[7] = molecular target: T7, ERK1 (Homo sapiens, UniProt P27361); test: ThermoFisher SelectScreen, ERK1; type: binding
T7 construct: purchased ThermoFisher (SelectScreen, outsourced service)

[8] = tested on: endometriotic lesions; test: Mouse model of induced endometriosis; details: 14 days of treatment
Protocol: FIG. 22A presents the design of an in vivo model in which JNK-I were evaluated for their ability to cause regression of endometriosis in mice. […] In this experimental design, endometriosis is induced by introducing isolated endometrial tissues from a donor mouse, and the prepared endometrial cells are introduced into the peritoneal cavity of recipient mice. Fourteen (14) days after induction of endometriosis, drug treatments are initiated and continued for 14 days. At the end of study (i.e., 28 days) the presence of endometriosis lesions are determined and various measurements performed.

[9] = molecular target: T3, JNK1; test: ThermoFisher SelectScreen, JNK1; type: binding
[10] = Plasma ALT and AST after intraperitoneal administration; type: in vivo, mouse; details: 24 h post-dose, individual mice 1-3
[11] = Pharmacokinetics after intraperitoneal administration in mice; type: in vivo; details: mouse, ip, 50 mg/kg, plasma
From the text: Based on stability and estimated half-life of compounds exposed to liver microsome in vitro, CDD-2728 was selected for PK evaluation.

T3 sequence (P45983 whole entry): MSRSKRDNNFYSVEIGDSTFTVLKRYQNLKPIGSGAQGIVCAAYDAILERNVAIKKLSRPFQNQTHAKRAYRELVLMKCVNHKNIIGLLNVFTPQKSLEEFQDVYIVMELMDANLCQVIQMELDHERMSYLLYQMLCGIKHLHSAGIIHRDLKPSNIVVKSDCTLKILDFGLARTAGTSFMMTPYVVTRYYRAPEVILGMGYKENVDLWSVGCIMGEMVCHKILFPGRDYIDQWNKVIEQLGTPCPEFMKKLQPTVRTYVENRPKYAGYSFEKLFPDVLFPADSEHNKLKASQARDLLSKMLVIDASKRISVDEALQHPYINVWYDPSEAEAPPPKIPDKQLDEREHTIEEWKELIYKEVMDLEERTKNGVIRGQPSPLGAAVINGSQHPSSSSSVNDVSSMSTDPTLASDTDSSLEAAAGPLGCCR
T1 sequence (P48730 whole entry): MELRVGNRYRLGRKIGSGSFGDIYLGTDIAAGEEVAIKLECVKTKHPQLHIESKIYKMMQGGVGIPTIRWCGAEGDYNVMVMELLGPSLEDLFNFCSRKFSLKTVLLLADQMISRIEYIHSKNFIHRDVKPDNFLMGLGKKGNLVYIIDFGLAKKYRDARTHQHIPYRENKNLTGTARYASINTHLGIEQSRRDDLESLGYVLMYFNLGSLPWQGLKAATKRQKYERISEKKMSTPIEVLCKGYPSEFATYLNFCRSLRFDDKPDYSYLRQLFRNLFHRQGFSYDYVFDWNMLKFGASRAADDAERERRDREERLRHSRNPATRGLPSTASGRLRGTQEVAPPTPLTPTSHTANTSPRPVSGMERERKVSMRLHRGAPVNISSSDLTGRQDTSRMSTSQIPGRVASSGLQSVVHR
T4 sequence (O60331 whole entry): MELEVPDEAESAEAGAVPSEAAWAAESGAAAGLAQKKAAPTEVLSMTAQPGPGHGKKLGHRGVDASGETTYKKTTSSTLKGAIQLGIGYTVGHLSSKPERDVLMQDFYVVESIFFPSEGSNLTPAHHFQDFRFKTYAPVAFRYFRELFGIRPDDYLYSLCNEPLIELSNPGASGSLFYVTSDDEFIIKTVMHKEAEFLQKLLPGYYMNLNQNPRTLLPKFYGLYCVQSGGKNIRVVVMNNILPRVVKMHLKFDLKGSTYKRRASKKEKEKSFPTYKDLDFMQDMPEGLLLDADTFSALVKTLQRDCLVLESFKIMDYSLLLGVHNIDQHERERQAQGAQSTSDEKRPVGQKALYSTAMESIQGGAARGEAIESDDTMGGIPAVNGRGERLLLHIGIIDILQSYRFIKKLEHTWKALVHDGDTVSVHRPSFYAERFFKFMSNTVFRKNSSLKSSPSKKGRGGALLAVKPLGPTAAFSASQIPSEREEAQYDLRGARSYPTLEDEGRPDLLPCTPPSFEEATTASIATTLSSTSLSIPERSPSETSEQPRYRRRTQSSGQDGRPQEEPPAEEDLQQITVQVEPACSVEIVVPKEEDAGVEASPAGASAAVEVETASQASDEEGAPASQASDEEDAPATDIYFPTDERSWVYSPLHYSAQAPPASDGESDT
T7 sequence (P27361 whole entry): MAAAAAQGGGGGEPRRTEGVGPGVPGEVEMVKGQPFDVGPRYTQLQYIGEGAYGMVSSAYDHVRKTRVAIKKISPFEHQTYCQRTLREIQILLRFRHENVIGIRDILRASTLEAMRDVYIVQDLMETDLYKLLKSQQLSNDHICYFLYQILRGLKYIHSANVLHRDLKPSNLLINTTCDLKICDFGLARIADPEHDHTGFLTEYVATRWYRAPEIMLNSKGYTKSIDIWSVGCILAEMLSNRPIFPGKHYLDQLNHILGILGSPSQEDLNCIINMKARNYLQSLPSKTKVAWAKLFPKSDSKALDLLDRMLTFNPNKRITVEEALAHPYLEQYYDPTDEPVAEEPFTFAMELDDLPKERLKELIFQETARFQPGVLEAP
T6 sequence (P28482 whole entry): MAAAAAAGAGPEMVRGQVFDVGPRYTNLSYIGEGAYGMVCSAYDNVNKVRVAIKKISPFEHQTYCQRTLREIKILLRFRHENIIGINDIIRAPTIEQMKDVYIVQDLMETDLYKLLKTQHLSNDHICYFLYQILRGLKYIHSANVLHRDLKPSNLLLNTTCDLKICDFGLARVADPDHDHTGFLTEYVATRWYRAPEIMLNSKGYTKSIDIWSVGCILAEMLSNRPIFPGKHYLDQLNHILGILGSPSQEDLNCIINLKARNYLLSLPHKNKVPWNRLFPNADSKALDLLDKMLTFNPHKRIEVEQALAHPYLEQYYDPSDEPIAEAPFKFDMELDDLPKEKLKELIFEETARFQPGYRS

Kd [1] [nM]	Kd [2] [nM]	Kd [3] [nM]	Kd [4] [nM]	Kd [5] [nM]	SMILES	also measured
55	188	0.23 ± 0.08	811	18	CNCc1ccc(NC(=O)c2ccn3ncc(-c4cnc5[nH]ccc5c4)c3c2)cc1 [CDD-2346, N-(4-((methylamino)methyl)phenyl)-3-(1H-pyrrolo[2,3-b]pyridin-5-yl)pyrazolo[1,5-a]pyridine-5-carboxamide]	
30	110	0.25 ± 0.04	13200	9	CN(C)Cc1ccc(NC(=O)c2ccn3ncc(-c4cnc5[nH]ccc5c4)c3c2)cc1 [CDD-2482, N-(4-((dimethylamino)methyl)phenyl)-3-(1H-pyrrolo[2,3-b]pyridin-5-yl)pyrazolo[1,5-a]pyridine-5-carboxamide]	
2350	1950	1.7 ± 0.2	1150	26.2	O=C(Nc1ccc(F)cc1)c1ccn2ncc(-c3cnc4[nH]ccc4c3)c2c1 [CDD-2486, N-(4-fluorophenyl)-3-(1H-pyrrolo[2,3-b]pyridin-5-yl)pyrazolo[1,5-a]pyridine-5-carboxamide]	
821		0.24 ± 0.05		18	CN(C)C(=O)c1cc(NC(=O)c2cc3c(-c4cnc5[nH]ccc5c4)cccc3s2)ccc1O [CDD-2728, N-(3-(dimethylcarbamoyl)-4-hydroxyphenyl)-4-(1H-pyrrolo[2,3-b]pyridin-5-yl)benzo[b]thiophene-2-carboxamide]	Kd [6]: 534 nM; Kd [7]: 909 nM; inhibition of ERK1/2 ([7]; ERK1/2, in words): only modest inhibition of ERK1/2; impact on uterine, liver or kidney weight / other tissues [8]: no impact; Kd [9]: 1 nM; ALT [10]: 87.34 IU/L and 29.17 IU/L and 23.07 IU/L; AST [10]: 78.94 IU/L and 38.37 IU/L and 35.80 IU/L; AUC(0-inf) [11]: 8.03 ± 2.52 µM·h; AUC(0-t) [11]: 5.7 ± 2.53 µM·h; CL/F [11]: 245 mL/min/kg; Cmax [11]: 440 ± 190 nM; Tmax [11]: 3 ± 1.15 h; MRT last ([11]; read-out: MRT0-t): 8.57 ± 1.33 h; MRT inf ([11]; read-out: MRT0-∞): 20.5 ± 13 h; half-life ([11]; read-out: T1/2 (converted)): 14.2 ± 8.92 h; half-life ([11]; read-out: half-life, injected into the peritoneal cavity (converted)): 14 h
